This note sets out measurements from US20240174690A1, “ANNULATED 2-AMINO-3-CYANO THIOPHENES AND DERIVATIVES FOR THE TREATMENT OF CANCER” (BOEHRINGER INGELHEIM INTERNATIONAL GMBH, priority 2021, published 2024).

Where two headings read alike, the source gives them in different places.

For one experiment, the target named is KRAS (WT)::SOS1 (Homo sapiens (Human), UniProt P01116, C118S). Description: KRAS::SOS1 AlphaScreen binding assay, KRAS WT. The text has this: This assay can be used to examine the potency with which compounds according to the invention binding to (mutated) KRAS inhibit the protein-protein interaction between SOS1 and (mutated) KRAS e.g., KRAS WT, KRAS G12C, KRAS G12D, KRAS G12V, KRAS G13D. […] Low IC50 values in this assay setting are indicative of strong inhibition of protein-protein interaction between SOS1 and KRAS:
These assays measure the inhibitory effect of compounds on KRAS mutant protein-protein interactions using the Alpha Screen technology by Perkin Elmer.
The following (mutant) enzyme forms of KRAS and interacting proteins are used in these assays at the given concentrations: • KRAS (G12D) 1-169, N-terminal 6His-tag, C-terminal avi-tag (Xtal BioStructures, Inc.); final assay concentration 10 nM and SOS1 564-1049, N-terminal 229 GST-tag, TEV cleavage site (Viva Biotech Ltd); final assay concentration 5 nM; • KRAS (G12C) 1-169, N-terminal 6His-tag for purification, cleaved off, C-terminal avi-tag, biotinylated, mutations: C51S, C80L, C118S (in house); final assay concentration 7.5 nM and SOS1 564-1049, N-terminal 229 GST-tag, TEV cleavage site (Viva Biotech Ltd); final assay concentration 5 nM; • KRAS (G12V) 1-169, N-terminal 6His-tag for purification, cleaved off, C-terminal avi-tag, biotinylated, TEV cleavage site, mutation: C118S, GDP loaded (in house); final assay concentration 10 nM and SOS1 564-1049, N-terminal 229 GST-tag, TEV cleavage site (Viva Biotech Ltd); final assay concentration 10 nM; • KRAS (G13D) 1-169, N-terminal 6His-tag for purification, cleaved off, C-terminal avi-tag, biotinylated, TEV cleavage site, mutation: C118S, GDP loaded (in house); final assay concentration 10 nM and SOS1 564-1049, N-terminal 229 GST-tag, TEV cleavage site (Viva Biotech Ltd); final assay concentration 10 nM; • KRAS (WT) 1-169, N-terminal 6His-tag for purification, cleaved off, C-terminal avi-tag, biotinylated, TEV cleavage site, mutation: C118S, GDP loaded (in house); final assay concentration 10 nM and SOS1 564-1049, N-terminal 229 GST-tag, TEV cleavage site (Viva Biotech Ltd); final assay concentration 10 nM.
Test compounds dissolved in DMSO are dispensed onto assay plates (Proxiplate 384 PLUS, white, PerkinElmer; 6008289) using an Access Labcyte Workstation with the Labcyte Echo 55×. For the chosen highest assay concentration of 100 μM, 150 nL of compound solution are transferred from a 10 mM DMSO compound stock solution. A series of eleven fivefold dilutions per compound are transferred to the assay plate, compound dilutions are tested in duplicates. DMSO are added as backfill to a total volume of 150 nL.
The assays run on a fully automated robotic system in a darkened room below 100 Lux. To 150 nl of compound dilution 10 μl of a mix including KRAS mutant protein, SOS1 (final assay concentrations see above) and GDP nucleotide (Sigma G7127; final assay concentration 10 μM) in assay buffer (1×PBS, 0.1% BSA, 0.05% Tween 20) are added into columns 1-24.
After 30 minutes incubation time 5 μl of Alpha Screen bead mix in assay buffer are added into columns 1-23. Bead mix consists of AlphaLISA Glutathione Acceptor Beads (PerkinElmer, Cat No AL109) and AlphaScreen Streptavidin Donor Beads (PerkinElmer Cat No 6760002) in assay buffer at a final assay concentration of 10 μg/ml each.
Plates are kept at room temperature in a darkened incubator. After an additional 60 minutes incubation time the signal is measured in a PerkinElmer Envision HTS Multilabel Reader using the AlphaScreen specs from PerkinElmer.
Each plate contains up to 16 wells of a negative control depending on the dilution procedure (platewise or serial) (DMSO instead of test compound; with KRAS mutant::SOS1 GDP mix and bead mix; column 23) and 16 wells of a positive control (DMSO instead of test compound; with KRAS mutant::SOS1 GDP mix w/o bead mix; column 24).
As internal control known inhibitors of KRAS mutant::SOS1 interaction can be measured on each compound plate. […]
(Alpha assays give light when donor and acceptor beads are brought close together.)

In a further experiment the test system is GP2D cells. As to the kind of experiment: GP2D proliferation assay (120 h) (colorectal cancer, G12D). The experiment is classed as cell-based. On the procedure:
GP2D Proliferation Assay (120 h) (Colorectal Cancer, G12D)
GP2D cells (ATCC No. CRL-5807) are dispensed into white 384-well plates, flat and white bottom (Perkin Elmer, 6007680) at a density of 500 cells per well in 40 μl DMEM (Sigma, D6429)+1×GlutaMAX (Gibco, 35050038)+10% FCS (fetal calf serum). […] Compounds (10 mM stock in DMSO) are added at logarithmic dose series using the HP Digital Dispenser D300 (Tecan), including DMSO controls and normalizing for added DMSO. For the TO time point measurement, untreated cells are analyzed at the time of compound addition. Plates are incubated for 120 h, and cell viability is measured using CellTiter-Glo luminescent cell viability reagent (Promega product code G7570). Viability (stated as percent of control) is defined as relative luminescence units RLU of each well divided by the RLU of cells in DMSO controls. IC50 values are determined from viability measurements by non-linear regression using a four parameter model.

The test system of a further experiment is MKN1 cells. Description: MKN1 CTG proliferation assay (120 h) (gastric cancer, wt amplified). The experiment is classed as cell-based. The following applies: Homo sapiens. Here is the method:
MKN1 CTG Proliferation Assay (120 h) (Gastric Cancer, Wt Amplified)
MKN1 cells (JCRB0252) are dispensed into white 384-well plates, flat and white bottom (Corning Costar, PNr.: 3570) at a density of 400 cells per well in 50 μL RPMI 1640 (PAN-Biotech, PNr.: P04-18047)+10% FCS (HyClone, PNr.: SH30084.03) (assay 1) or into white 384-well plates, flat and white bottom (Perkin Elmer, 6007680) at a density of 500 cells per well in 40 μl RPMI (Gibco, PNr.: 21875034)+10% FCS (HyClone, PNr.: SH30084.03) (assay 2) or into black 384-well plates, flat and clear bottom (Greiner, PNr. 781091) at a density of 200 cells per well in 60 μl RPMI-1640 (Gibco #A10491)+10% FCS (HyClone, PNr.: SH30084.03)+PenStrep (Gibco, PNr.15140-122) (assay 3). […] Compounds (10 mM stock in DMSO) are added at logarithmic dose series using the HP Digital Dispenser D300 (Tecan) (assay 1+2) or the ECHO acoustic liquid handler system (Beckman Coulter) (assay 3), including DMSO controls and normalizing for added DMSO. Plates are incubated for 120 h, and cell viability is measured using CellTiter-Glo luminescent cell viability reagent (Promega product code G7570). Viability (stated as percent of control) is defined as relative luminescence units RLU of each well divided by the RLU of cells in DMSO controls. IC50 values are determined from viability measurements by non-linear regression using a four-parameter model.

Setting [1] is: MKN-1, assay 3, CTG 120 h, read-out: MKN1 (assay 3) IC50.

Chain of KRAS (WT)::SOS1 (P01116 other isoform, or with tags, fused parts or gaps C118S): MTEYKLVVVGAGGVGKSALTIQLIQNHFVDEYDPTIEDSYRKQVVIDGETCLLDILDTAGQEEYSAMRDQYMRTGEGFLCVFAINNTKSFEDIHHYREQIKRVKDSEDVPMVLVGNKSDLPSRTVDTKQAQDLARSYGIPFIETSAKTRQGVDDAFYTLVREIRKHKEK

Broadly, the IC50 is the concentration that inhibits the measured activity by half. `C[C@H](Oc1cc(N2CCOC3(COC3)C2)nc(-c2noc3c2CCC[C@@]32CCCc3sc(N)c(C#N)c32)n1)[C@@H]1CCCN1C` [II-77]: the IC50 on KRAS (WT)::SOS1 was 4 nM; in the experiment with GP2D cells, 37 nM; with MKN1 cells (setting [1]) it was 18 nM. Turning to `C[C@H](Oc1cc(N2CCc3cccnc32)nc(-c2noc3c2CCC[C@@]32CCCc3sc(N)c(C#N)c32)n1)[C@@H]1CCCN1C` [II-90], the IC50 at KRAS (WT)::SOS1 came to 33 nM. Turning to `C[C@H](Oc1cc(-c2ccccn2)nc(-c2noc3c2CCC[C@@]32CCCc3sc(N)c(C#N)c32)n1)[C@@H]1CCCN1C` [II-85], the results for the IC50 at KRAS (WT)::SOS1 and in the experiment on MKN1 cells (setting [1]) were 5 nM and 266 nM, respectively.

With `C[C@H](Oc1cc(-c2cnn(C)n2)nc(-c2noc3c2CCC[C@@]32CCCc3sc(N)c(C#N)c32)n1)[C@@H]1CCCN1C` [II-86], the IC50 stood at 5 nM at KRAS (WT)::SOS1 and 824 nM in the experiment with GP2D cells. `C[C@H](Oc1cc(-n2cc(-c3cccnc3)nn2)nc(-c2noc3c2CCC[C@@]32CCCc3sc(N)c(C#N)c32)n1)[C@@H]1CCCN1C` [II-123] returned an IC50 at KRAS (WT)::SOS1 of 11 nM. Consider `C[C@H](Oc1cc(-c2cncnc2)nc(-c2noc3c2CCC[C@@]32CCCc3sc(N)c(C#N)c32)n1)[C@@H]1CCCN1C` [II-82], for which the IC50 was 36 nM on KRAS (WT)::SOS1 and 712 nM in the experiment with MKN1 cells (setting [1]). With `C[C@H](Oc1cc(-c2ccn(C)n2)nc(-c2noc3c2CCC[C@@]32CCCc3sc(N)c(C#N)c32)n1)[C@@H]1CCCN1C` [II-96], the IC50 at KRAS (WT)::SOS1 worked out at 5 nM; in the experiment with GP2D cells, 809 nM. As to `C[C@H](Oc1cc(-n2ccc(Br)n2)nc(-c2noc3c2CCC[C@@]32CCCc3sc(N)c(C#N)c32)n1)[C@@H]1CCCN1C` [II-110], the IC50 at KRAS (WT)::SOS1 stood at 7 nM. For `C[C@H](Oc1cc(N2CCNC3(CC3)C2)nc(-c2onc3c2CCC[C@@]32CCCc3sc(N)c(C#N)c32)n1)[C@@H]1CCCN1C` [I-5], the IC50 at KRAS (WT)::SOS1 is 4 nM; in the experiment with GP2D cells, 1 nM; in the experiment on MKN1 cells (MKN-1, assay 2, CTG 120 h, read-out: MKN1 (assay 2) IC50), 499 nM. Take `C[C@H](Oc1cc(-n2ccnc2)nc(-c2noc3c2CCC[C@@]32CCCc3sc(N)c(C#N)c32)n1)[C@@H]1CCCN1C` [II-69]: the IC50 at KRAS (WT)::SOS1 came out at 3 nM; in the experiment with GP2D cells it was 585 nM. Turning to `C[C@H](Oc1cc(-n2cncc3ccnc2-3)nc(-c2noc3c2CCC[C@@]32CCCc3sc(N)c(C#N)c32)n1)[C@@H]1CCCN1C` [II-105], the IC50 amounted to 4 nM on KRAS (WT)::SOS1, 463 nM in the experiment with GP2D cells and 426 nM in the experiment on MKN1 cells (setting [1]). On to `C[C@H](Oc1cc(N2CCNC2=O)nc(-c2noc3c2CCC[C@@]32CCCc3sc(N)c(C#N)c32)n1)[C@@H]1CCCN1C` [II-64], for which the figures for the IC50 on KRAS (WT)::SOS1 and in the experiment on GP2D cells were 2 nM and 22 nM, respectively. Take `C[C@H](Oc1cc(-c2ccc(N)nc2)nc(-c2noc3c2CCC[C@@]32CCCc3sc(N)c(C#N)c32)n1)[C@@H]1CCCN1C` [II-101]: the IC50 on KRAS (WT)::SOS1 came out at 8 nM. In the case of `C[C@H](Oc1cc(-c2ccn3ncnc3c2)nc(-c2noc3c2CCC[C@@]32CCCc3sc(N)c(C#N)c32)n1)[C@@H]1CCCN1C` [II-104], the IC50 is 4 nM at KRAS (WT)::SOS1 and 510 nM with GP2D cells. Consider `C[C@H](Oc1cc(N2CCNC3(CC3)C2)nc(-c2noc3c2CCC[C@@]32CCCc3sc(N)c(C#N)c32)n1)[C@@H]1CCCN1C` [II-54], for which the half-inhibitory concentration (IC50) worked out at 3 nM on KRAS (WT)::SOS1 and 1 nM in the experiment on GP2D cells.

Take `C[C@H](Oc1cc(-c2ccncc2)nc(-c2noc3c2CCC[C@@]32CCCc3sc(N)c(C#N)c32)n1)[C@@H]1CCCN1C` [II-78]: the results for the IC50 at KRAS (WT)::SOS1 and in the experiment with MKN1 cells (setting [1]) were 7 nM and 533 nM, respectively. With `C[C@H](Oc1cc(-c2cnsc2)nc(-c2noc3c2CCC[C@@]32CCCc3sc(N)c(C#N)c32)n1)[C@@H]1CCCN1C` [II-111], the results for the IC50 at KRAS (WT)::SOS1 and in the experiment on GP2D cells were 4 nM and 443 nM, respectively. For `C[C@H](Oc1cc(-n2ccc(-c3ccccn3)n2)nc(-c2noc3c2CCC[C@@]32CCCc3sc(N)c(C#N)c32)n1)[C@@H]1CCCN1C` [II-119], the values for the IC50 at KRAS (WT)::SOS1 and in the experiment on MKN1 cells (setting [1]) were 6 nM and 252 nM, respectively. Take `CNC(=O)c1cn(-c2cc(O[C@@H](C)[C@@H]3CCCN3C)nc(-c3noc4c3CCC[C@@]43CCCc4sc(N)c(C#N)c43)n2)nn1` [II-122]: on KRAS (WT)::SOS1, the IC50 was 10 nM.
